Source: ChEMBL document CHEMBL1201862, “PubChem BioAssay data set” (2004)
Active and inactive are the calls of the source.

How the values were obtained:
[1] = tested on: Streptococcus sp. 'group A'; assay: Streptococcus pyogenes SK(-)GAS viability under kanamycin – luminescence, BacTiterGlo, confirmation, counter-screen for streptokinase expression inhibitor project, dose response (AID 1900); format: functional, organism-based
[2] = tested on: BJ; assay: BJ-TERT fibroblast viability loss – cell-based, RAS-independent, luminescence, dose response (AID 1933); format: functional; settings: Homo sapiens
[3] = biological target: Beta-galactosidase (Escherichia coli, UniProt Q8VNN2); assay: PubChem AID 485352; format: functional
[4] = tested on: BJ; assay: cells; format: functional, cell-based; settings: Homo sapiens
[5] = Trypanosoma cruzi growth suppression in host cells – NIH3T3 host cells, beta-gal luminescence, confirmation (AID 2044); format: functional, cell-based;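 further: intracellular parasites grown in NIH/3T3 mouse fibroblasts as host cells; luminescent beta-galactosidase reporter signal from transgenic T. cruzi replicating inside host cells; inhibitors lower the luminescence signal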
[6] = biological target: T1, Type-1 angiotensin II receptor (Homo sapiens, UniProt P30556); assay: antagonism of angiotensin II type 1 receptor – cell-based, uHTS hits, selectivity assay for APJ receptor antagonist project, dose response (AID 463214); format: functional;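 further: antagonist potency against angiotensin II stimulated AT1 response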
T1 sequence (P30556 whole entry): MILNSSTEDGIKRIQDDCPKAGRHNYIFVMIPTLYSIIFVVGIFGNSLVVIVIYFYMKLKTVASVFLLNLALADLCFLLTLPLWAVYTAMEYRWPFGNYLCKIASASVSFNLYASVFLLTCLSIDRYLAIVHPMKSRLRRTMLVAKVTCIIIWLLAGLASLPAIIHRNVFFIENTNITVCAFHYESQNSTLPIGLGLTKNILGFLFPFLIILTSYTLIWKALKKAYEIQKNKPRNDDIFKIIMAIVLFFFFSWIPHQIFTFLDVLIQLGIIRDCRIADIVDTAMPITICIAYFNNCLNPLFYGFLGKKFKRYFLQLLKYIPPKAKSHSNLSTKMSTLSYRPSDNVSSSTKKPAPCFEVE

[7] = NIH3T3 cell viability loss – ATP luminescence, mouse fibroblasts, counter-screen, dose response (AID 2010); format: functional, cell-based;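 further: cells exposed to compound for about 90 hours before reading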
[8] = tested on: BJ; assay: BJ-TERT-LT-ST fibroblast viability loss – cell-based, RAS-independent, luminescence, dose response (AID 1935); format: functional; settings: Homo sapiens;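 further: BJ fibroblasts immortalized with TERT plus LT and ST oncogenes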
[9] = DRD fibroblast viability loss – cell-based, non-viral oncogenic, luminescence, dose response (AID 1934); format: functional; settings: Homo sapiens
[10] = tested on: Streptococcus; assay: GAS UMAA2166 growth inhibition – luminescence, BacTiterGlo, counter-screen for streptokinase expression inhibitor project, dose response (AID 1915); format: functional, organism-based;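 further: potency for reduction of bacterial viability or growth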
[11] = biological target: Nonstructural protein 1 (Influenza A virus, UniProt Q194T2); format: functional, Influenza A virus (A/California/07/2009(H1N1))
[12] = biological target: T2, Replicative DNA helicase DnaB (Mycobacterium tuberculosis, UniProt P9WMR3); assay: DnaB intein splicing inhibitors, dose response, biochemical, cell-free fluorescence (AID 449749); format: functional
T2 sequence (P9WMR3 whole entry): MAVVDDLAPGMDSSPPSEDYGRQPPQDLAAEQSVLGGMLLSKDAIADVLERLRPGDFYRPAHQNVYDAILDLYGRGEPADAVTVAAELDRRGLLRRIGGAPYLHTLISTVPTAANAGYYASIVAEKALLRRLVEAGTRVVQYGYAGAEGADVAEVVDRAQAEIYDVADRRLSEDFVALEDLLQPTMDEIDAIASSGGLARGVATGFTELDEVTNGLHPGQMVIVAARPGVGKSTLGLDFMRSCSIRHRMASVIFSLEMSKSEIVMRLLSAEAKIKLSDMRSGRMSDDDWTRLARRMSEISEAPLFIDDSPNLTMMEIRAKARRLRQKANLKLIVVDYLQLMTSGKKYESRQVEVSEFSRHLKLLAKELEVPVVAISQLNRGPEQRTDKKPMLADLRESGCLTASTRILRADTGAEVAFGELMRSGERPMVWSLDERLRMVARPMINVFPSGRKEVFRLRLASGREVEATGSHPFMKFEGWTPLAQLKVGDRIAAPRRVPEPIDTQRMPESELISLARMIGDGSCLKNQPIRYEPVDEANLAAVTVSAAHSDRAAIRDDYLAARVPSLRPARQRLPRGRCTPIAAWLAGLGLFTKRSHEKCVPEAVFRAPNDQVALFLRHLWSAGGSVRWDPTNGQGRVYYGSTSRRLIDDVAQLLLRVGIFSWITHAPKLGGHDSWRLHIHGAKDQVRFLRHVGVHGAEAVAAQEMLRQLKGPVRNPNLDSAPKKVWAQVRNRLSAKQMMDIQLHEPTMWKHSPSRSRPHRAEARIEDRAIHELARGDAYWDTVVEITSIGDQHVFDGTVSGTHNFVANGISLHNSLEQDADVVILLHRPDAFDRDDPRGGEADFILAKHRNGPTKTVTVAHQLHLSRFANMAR

[13] = biological target: T3, Protein RecA (Mycobacterium tuberculosis, UniProt P9WHJ3); assay: Fluorescence Cell-Free Homogeneous Dose Retest to Identify Inhibitors of RecA-Intein Splicing Activity. [Related pubchem assays (depositor defined):AID2097, AID2223, AID489010, AID492950]; format: functional
T3 sequence (P9WHJ3 whole entry): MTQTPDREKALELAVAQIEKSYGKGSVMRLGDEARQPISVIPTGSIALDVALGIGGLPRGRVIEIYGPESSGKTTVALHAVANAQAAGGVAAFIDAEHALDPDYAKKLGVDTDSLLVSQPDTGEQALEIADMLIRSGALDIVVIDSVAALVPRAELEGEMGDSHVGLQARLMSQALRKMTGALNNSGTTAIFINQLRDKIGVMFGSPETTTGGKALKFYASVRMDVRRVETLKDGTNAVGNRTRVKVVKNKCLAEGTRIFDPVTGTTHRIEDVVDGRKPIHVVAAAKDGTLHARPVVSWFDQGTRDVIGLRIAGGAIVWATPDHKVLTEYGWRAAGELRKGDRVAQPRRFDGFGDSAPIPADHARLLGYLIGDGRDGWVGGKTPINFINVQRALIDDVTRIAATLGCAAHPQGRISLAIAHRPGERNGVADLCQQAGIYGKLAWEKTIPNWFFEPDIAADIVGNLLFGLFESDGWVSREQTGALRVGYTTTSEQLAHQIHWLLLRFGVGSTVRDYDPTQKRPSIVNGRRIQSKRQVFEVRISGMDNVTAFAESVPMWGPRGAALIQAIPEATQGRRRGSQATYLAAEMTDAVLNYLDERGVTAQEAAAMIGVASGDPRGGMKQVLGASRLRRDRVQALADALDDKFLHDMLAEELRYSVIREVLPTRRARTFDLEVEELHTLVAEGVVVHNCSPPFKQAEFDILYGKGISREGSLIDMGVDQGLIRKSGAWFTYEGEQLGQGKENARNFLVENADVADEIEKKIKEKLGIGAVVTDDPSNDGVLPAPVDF

[14] = tested on: INS1; assay: INS-1E survival protection against cytokine death – cell-based, luminescence, retest, dose response (AID 449756); format: functional; settings: Rattus norvegicus, INS1;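 further: cell death triggered by IL-1 beta plus TNF-alpha plus IFN-gamma mixture; protective hits raise ATP signal compared with cytokine alone wells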
[15] = IC50 of Artemis nuclease activity blockers – biochemical, fluorescence intensity, dose response (AID 720701); format: functional;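 further: Artemis endonuclease enzyme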
[16] = biological target: Kallikrein-7 (Homo sapiens, UniProt P49862); assay: Fluorescence Intensity-based biochemical primary high throughput dose response assay to identify activators of kallikrein-7 (K7) zymogen.
[17] = biological target: Glucose-6-phosphate 1-dehydrogenase (Homo sapiens, UniProt P11413); assay: inhibition of Homo sapiens G6PD, dose series – biochemical, fluorescence, selectivity assay for P. falciparum G6PD inhibitor project, dose response (AID 504792); format: functional
[18] = biological target: T4, Small ubiquitin-related modifier 1 (Homo sapiens, UniProt P63165); assay: SUMO1 protein interaction blockers, potency – biochemical, fluorescence polarization, uHTS hits, dose response (AID 624382); format: functional; settings: read-out: IC50_Mean
[19] = biological target: T4, Small ubiquitin-related modifier 1; assay: SUMO1 protein-protein binding blockers, potency – biochemical, FRET, dose response (AID 624383); format: functional; settings: read-out: IC50_Mean
[20] = viability loss in HeLa cells – cytotoxicity control for MgcRacGAP inhibitor project, dose response (AID 624300); format: functional
[21] = biological target: T5, Rac GTPase-activating protein 1 (Homo sapiens, UniProt Q9H0H5); assay: blockers of MgcRacGAP-driven Rac1 GTP hydrolysis – biochemical, ADP Hunter fluorescence, primary and confirmatory, confirmation (AID 624330); format: functional
T5 sequence (Q9H0H5 whole entry): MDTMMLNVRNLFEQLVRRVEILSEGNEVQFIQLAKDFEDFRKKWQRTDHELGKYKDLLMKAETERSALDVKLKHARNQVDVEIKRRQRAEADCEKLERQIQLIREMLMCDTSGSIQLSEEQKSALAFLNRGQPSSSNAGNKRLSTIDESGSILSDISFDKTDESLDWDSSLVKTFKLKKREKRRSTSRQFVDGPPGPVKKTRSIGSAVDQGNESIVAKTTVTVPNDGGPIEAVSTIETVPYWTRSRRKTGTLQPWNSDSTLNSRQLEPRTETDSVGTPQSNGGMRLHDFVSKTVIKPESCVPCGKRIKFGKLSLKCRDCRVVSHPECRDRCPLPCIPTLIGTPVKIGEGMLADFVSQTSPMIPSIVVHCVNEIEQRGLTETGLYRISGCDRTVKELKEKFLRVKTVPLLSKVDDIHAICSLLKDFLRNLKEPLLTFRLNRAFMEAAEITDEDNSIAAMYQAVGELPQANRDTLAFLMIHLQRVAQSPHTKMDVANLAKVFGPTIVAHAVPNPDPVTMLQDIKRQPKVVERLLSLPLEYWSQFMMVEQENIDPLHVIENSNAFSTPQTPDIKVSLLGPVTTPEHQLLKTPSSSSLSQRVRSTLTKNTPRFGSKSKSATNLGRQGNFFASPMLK

[22] = biological target: T6, DNA repair protein RAD52 homolog (Homo sapiens, UniProt P43351); format: functional, biochemical
T6 sequence (P43351 whole entry): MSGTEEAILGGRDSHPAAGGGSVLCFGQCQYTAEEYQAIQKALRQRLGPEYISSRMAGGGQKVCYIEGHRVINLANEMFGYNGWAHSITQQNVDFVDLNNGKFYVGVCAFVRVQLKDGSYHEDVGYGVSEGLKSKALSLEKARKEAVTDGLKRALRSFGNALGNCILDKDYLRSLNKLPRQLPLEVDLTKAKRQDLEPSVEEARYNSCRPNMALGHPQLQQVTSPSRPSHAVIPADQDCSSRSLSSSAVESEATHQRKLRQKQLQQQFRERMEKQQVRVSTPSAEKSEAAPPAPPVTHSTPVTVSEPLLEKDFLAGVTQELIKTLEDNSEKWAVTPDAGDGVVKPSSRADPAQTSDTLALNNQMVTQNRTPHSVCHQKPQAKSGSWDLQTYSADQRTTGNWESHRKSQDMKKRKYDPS

[23] = viability loss in THP-1 monocytes – THP-1 cells, cytotoxicity control for Vif-APOBEC3G degradation inhibitor project, dose response (AID 1117359); format: functional; settings: THP-1
[24] = biological target: Glutathione-S-transferase (Schistosoma japonicum, UniProt Q26513); assay: GST-antibody interaction or FRET quenching – biochemical, TR-FRET, artefact control for Vif-APOBEC3G degradation inhibitor project, dose response (AID 1117362); format: functional
[25] = biological target: Paired box protein Pax-8 (Homo sapiens, UniProt Q06710); assay: PAX8 transcriptional activity inhibition in RMG-I – RMG-I cells, luciferase, cherry-pick, dose response (AID 687027); format: functional, cell-based;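 further: luciferase reporter driven by Pax8 target thyroperoxidase promoter measured by SteadyGlo luminescence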
[26] = toxicity toward immortalized ovarian surface epithelium – cell-based, plate reader, dry powder samples, cytotoxicity control for PAX8 inhibitor project, dose response (AID 743045); format: functional
[27] = A2780 cell killing – plate reader, dry powder samples, cytotoxicity control, dose response (AID 743046); format: functional, cell-based
[28] = reduced cellular PGC1a acetyl-lysine signal – cell-based, cherry-picked samples, dose response (AID 720514); format: functional;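 further: potency may reflect raised or lowered acetylation signal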
[29] = OVCAR-3 cell viability loss – plate reader, dry powder samples, PAX8 inhibitor project, dose response (AID 743044); format: functional, cell-based
[30] = IGROV1 cell killing – plate reader, dry powder samples, PAX8 inhibitor project, dose response (AID 743043); format: functional, cell-based; settings: IGROV-1
[31] = OVCAR8 cell viability loss – plate reader, dry powder samples, PAX8 project, dose response (AID 743197); format: functional, cell-based; settings: OVCAR-8

T4 sequence (P63165 whole entry): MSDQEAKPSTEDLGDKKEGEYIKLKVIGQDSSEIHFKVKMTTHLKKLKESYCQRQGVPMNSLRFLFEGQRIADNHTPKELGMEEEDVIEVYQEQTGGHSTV
Glucose-6-phosphate 1-dehydrogenase, sequence (P11413 whole entry): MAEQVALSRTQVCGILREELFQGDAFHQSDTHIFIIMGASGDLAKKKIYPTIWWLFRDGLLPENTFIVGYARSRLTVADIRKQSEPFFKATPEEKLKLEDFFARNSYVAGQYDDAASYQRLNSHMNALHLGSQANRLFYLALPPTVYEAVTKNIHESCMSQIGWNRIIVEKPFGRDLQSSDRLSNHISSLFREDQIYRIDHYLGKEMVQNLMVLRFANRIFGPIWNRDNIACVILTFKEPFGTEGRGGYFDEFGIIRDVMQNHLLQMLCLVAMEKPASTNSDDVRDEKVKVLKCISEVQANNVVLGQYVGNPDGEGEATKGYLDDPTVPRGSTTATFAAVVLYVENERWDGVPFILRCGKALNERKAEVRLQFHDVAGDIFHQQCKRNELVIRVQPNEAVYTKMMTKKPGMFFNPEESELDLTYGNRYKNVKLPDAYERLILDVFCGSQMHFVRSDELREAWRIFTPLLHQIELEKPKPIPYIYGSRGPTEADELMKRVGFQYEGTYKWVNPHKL
Paired box protein Pax-8, sequence (Q06710 whole entry): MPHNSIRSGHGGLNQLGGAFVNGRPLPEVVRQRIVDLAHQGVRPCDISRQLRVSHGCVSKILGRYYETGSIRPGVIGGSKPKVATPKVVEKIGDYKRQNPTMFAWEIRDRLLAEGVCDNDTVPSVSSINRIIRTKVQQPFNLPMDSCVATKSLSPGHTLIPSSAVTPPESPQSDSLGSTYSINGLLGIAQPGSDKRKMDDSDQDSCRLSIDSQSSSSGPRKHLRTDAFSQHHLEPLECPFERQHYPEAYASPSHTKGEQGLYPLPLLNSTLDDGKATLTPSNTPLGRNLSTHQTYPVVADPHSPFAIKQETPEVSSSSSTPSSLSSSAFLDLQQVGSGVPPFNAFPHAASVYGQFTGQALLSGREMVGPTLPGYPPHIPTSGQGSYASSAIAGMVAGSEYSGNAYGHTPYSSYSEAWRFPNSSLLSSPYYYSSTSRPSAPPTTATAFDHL
Kallikrein-7, sequence (P49862 whole entry): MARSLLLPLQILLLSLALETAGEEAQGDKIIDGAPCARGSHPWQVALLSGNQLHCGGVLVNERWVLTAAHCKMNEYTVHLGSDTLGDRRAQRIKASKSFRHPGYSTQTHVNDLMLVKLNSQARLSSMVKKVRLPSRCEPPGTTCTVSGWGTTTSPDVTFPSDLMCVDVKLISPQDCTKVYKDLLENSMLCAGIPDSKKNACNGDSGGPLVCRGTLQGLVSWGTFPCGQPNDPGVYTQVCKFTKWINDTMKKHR
Glutathione-S-transferase, sequence (Q26513 whole entry): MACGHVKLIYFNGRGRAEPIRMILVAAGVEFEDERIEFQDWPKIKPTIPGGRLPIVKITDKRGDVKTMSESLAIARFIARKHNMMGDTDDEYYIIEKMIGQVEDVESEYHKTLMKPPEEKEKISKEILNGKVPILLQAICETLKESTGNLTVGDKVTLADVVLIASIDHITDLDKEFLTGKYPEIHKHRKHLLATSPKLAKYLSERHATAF
Beta-galactosidase, sequence (Q8VNN2 whole entry): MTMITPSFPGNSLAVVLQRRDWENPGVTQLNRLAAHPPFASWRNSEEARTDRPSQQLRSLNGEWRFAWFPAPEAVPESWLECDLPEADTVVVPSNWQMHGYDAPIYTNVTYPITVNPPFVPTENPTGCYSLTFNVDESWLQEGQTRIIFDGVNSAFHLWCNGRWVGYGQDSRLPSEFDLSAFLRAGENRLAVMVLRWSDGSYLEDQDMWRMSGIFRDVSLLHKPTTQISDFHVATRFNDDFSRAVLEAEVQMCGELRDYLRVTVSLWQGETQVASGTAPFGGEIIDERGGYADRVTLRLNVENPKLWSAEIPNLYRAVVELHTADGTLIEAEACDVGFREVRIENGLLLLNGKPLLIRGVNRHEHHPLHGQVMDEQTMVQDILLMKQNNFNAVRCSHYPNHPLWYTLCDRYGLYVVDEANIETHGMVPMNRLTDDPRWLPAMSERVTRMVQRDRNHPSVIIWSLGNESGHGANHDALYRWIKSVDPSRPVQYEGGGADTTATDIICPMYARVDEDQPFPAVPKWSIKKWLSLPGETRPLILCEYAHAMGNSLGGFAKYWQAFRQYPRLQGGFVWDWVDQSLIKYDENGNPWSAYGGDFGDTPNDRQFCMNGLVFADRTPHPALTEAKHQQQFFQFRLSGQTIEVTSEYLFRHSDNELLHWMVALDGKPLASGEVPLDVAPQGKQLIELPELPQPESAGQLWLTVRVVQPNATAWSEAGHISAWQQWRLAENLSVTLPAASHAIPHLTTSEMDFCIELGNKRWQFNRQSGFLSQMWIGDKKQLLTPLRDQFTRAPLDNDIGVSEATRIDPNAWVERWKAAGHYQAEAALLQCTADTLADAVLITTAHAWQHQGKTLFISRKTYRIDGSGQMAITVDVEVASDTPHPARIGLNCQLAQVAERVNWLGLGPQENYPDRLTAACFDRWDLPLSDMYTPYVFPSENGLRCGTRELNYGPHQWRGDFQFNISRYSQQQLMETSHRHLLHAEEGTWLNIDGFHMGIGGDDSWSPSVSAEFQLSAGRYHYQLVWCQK
Nonstructural protein 1, sequence (Q194T2 whole entry): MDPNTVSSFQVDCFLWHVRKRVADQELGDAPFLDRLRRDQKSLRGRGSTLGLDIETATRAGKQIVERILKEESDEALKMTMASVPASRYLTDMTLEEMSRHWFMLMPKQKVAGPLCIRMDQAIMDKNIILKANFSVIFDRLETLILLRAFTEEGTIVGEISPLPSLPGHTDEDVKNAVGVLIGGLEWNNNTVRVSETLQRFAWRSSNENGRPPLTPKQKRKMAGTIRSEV

Q: For `c1ccc(-c2nc(N3CCCCCC3)c3ccccc3n2)nc1`, which EC50 [1] is on record?
A: 0.947 µM (active)

Q: And the EC50 [2]?
A: 9.59 µM (active)

Q: What about the EC50 [3] of the same compound?
A: > 40 µM (inactive)

Q: And the EC50 [4]?
A: 25.7 µM (active)

Q: What about the EC50 [5] of the same compound?
A: 0.845 µM (active)

Q: What about the IC50 [6] of the same compound?
A: > 40 µM (not active)

Q: And the EC50 [7]?
A: 2.24 µM (active)

Q: What about the EC50 [8] of the same compound?
A: 50.7 µM (inconclusive)

Q: What about the EC50 [9] of the same compound?
A: 21 µM (active)

Q: And the EC50 [10]?
A: 1.19 µM (active)

Q: And the IC50 [11]?
A: 23 µM (active)

Q: What about the AC50 [12] of the same compound?
A: 36.2 µM (active)

Q: And the EC50 [13]?
A: > 380 µM (inconclusive)

Q: What about the AC50 [14] of the same compound?
A: 1.8 µM (active)

Q: And the IC50 [15]?
A: 4.71 µM (active)

Q: Which EC50 [16] does the source give for `COc1ccc2oc(=O)c(C(=O)N3CCN(C(=O)c4ccccc4)CC3)cc2c1` here?
A: > 69.5 µM (inactive)

Q: With `Cc1cc(C)c2c(=N)c3ccccc3n(CCCCCCCCn3c4ccccc4c(=N)c4c(C)cc(C)nc43)c2n1` as the compound, how does the IC50 [17] read?
A: 29 µM (inactive)

Q: And the IC50 [18]?
A: > 66.6 µM (inactive)

Q: What about the IC50 [19] of the same compound?
A: 4.83 µM (active)

Q: What about the CC50 [20] of the same compound?
A: 20.4 µM (active)

Q: What about the IC50 [21] of the same compound?
A: 26.3 µM (active)

Q: And the AC50 [22]?
A: < 0.364 µM (active)

Q: And the CC50 [23]?
A: 5.65 µM (active)

Q: What about the IC50 [24] of the same compound?
A: 2.4 µM (active)

Q: Which results are given for `N#Cc1ccc(-c2ccc([C@@H]3[C@@H]4CN(S(=O)(=O)c5ccc(-c6ccccc6)cc5)C[C@H]3N4)cc2)cc1`?
A: AC50 [25]: 41.9 µM (active); AC50 [26]: 23.3 µM (active); AC50 [27]: 17.8 µM (active); AC50 [28]: 1.55 µM (active); AC50 [29]: 28.8 µM (active); AC50 [30]: 34.9 µM (active); AC50 [31]: 17.8 µM (active)
